According to ChEMBL document CHEMBL6092178, “Discovery of a novel KV7.2/7.3 channels agonist for the treatment of neuropathic pain” (Eur J Med Chem, 2024):

Biological target: Voltage-gated potassium channel, KQT; KCNQ2(Kv7.2)/KCNQ3(Kv7.3) (Homo sapiens, UniProt O43525+O43526)
Experiment: Agonist activity at human KCNQ2/3 transfected in human HEK293 cells incubated for 30 mins by fluorimetric assay
Format: cell-based

Sequence of Voltage-gated potassium channel, KQT; KCNQ2(Kv7.2)/KCNQ3(Kv7.3) (O43526 whole entry): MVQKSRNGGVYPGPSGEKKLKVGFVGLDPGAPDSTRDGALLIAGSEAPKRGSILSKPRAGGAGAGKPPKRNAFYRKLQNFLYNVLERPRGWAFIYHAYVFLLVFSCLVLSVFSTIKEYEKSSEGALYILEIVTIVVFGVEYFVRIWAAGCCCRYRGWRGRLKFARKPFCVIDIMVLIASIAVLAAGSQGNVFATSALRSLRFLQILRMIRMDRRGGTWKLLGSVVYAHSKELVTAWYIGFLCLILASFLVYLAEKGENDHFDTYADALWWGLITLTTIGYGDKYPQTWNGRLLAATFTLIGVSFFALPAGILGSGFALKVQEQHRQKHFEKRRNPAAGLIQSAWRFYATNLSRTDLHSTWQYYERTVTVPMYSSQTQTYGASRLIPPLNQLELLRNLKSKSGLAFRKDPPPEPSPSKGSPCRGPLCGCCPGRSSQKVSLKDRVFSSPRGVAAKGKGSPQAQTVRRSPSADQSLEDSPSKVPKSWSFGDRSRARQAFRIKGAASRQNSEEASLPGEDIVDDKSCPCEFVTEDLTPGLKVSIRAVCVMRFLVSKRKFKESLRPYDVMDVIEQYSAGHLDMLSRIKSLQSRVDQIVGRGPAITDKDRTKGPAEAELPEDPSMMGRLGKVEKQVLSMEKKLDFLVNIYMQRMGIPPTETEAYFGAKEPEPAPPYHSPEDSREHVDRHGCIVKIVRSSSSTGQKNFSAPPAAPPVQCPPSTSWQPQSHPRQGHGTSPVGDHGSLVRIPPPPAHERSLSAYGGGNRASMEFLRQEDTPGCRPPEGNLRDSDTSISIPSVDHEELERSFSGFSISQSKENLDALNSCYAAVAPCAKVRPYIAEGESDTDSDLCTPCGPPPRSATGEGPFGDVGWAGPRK
Sequence of Voltage-gated potassium channel, KQT; KCNQ2(Kv7.2)/KCNQ3(Kv7.3) (O43525 whole entry): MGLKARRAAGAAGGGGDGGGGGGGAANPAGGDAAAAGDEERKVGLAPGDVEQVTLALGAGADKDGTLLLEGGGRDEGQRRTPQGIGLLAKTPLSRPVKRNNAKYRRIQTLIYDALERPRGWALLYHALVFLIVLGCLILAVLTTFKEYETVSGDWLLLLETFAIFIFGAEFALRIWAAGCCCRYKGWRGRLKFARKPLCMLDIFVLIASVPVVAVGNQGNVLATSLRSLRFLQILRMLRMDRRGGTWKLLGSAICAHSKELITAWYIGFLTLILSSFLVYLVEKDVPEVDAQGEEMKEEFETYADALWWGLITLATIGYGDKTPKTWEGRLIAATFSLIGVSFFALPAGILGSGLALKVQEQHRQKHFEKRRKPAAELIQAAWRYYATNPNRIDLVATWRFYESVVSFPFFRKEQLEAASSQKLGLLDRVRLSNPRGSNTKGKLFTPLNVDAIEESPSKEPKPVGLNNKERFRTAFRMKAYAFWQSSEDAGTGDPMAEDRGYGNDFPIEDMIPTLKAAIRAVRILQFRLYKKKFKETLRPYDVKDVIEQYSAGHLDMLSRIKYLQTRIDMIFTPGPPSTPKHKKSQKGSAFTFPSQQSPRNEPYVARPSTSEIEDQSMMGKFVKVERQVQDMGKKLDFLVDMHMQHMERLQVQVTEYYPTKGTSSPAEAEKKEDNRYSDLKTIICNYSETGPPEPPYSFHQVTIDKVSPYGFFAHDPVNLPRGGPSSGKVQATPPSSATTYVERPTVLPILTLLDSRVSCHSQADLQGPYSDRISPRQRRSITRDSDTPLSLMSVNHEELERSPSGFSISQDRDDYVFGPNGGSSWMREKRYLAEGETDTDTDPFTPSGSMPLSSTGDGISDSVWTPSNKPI

SMILES | EC50 [µM]
CC(=O)Nc1nc(OCc2ccc3c(c2)OCO3)ccc1N | 128
Nc1ccc(OCc2ccc(F)cc2)nc1N1CCCC1=O | 12.7
Nc1ccc(OCc2ccc(F)cc2)nc1NC(=O)c1ccccc1 | 98.6
CC(=O)Nc1cc(OCc2ccc(F)cc2)ccc1N | 13.5
COc1ccc(COc2ccc(N)c(NC(C)=O)n2)cc1 | 13.5
CC(=O)Nc1nc(OCc2ccncc2)ccc1N | 35.3
CC(=O)Nc1nc(OCc2ccc(-c3ccccc3)cc2)ccc1N | 131
Nc1ccc(OCc2ccc(F)cc2)nc1NC(=O)C1CCCCC1 | 164
CC(=O)Nc1nc(OCc2ccc(C(F)(F)F)cc2)ccc1N | 8.9
CC(C)C(=O)Nc1nc(OCc2ccc(F)cc2)ccc1N | 18.4
CC(=O)Nc1nc(OCCc2ccc(F)cc2)ccc1N | 9.39
CCC(=O)Nc1nc(OCc2ccc(F)cc2)ccc1N | 13.9
Nc1ccc(OCc2ccc(F)cc2)cc1NC(=O)c1ccccc1 | 196
